Consider 1 compound from article PMC11137182, “Selective and brain-penetrant ACSS2 inhibitors target breast cancer brain metastatic cells” (Frontiers in Pharmacology, 2024).

Data set [1] has as its system MDA-MB-231BR cells. As to the kind of experiment: Acetyl-CoA quantification by LC-HRMS. Format: cell-based. The settings on record: 100 μM, 48 h. Here is the method: Cells were grown to ∼80% confluency in a 10-cm dish in normal growth medium, 48 h prior to collecting cells, aspirate media and replace with fresh growth media and drug was added at 100 μM. To collect cells, media was aspirated and 1 mL of 10% trichloroacetic acid (w/v) in water was added directly to the cells. Cells were scraped and transferred into a 1.7 mL Eppendorf tube and stored at −80 until labeling. […] Lysates were centrifuged 17,000 g for 10 min at 4°C and supernatant was transferred to a deep-well 96-well plate for loading in a Tomtec Quadra4 liquid handling workstation. On the liquid handling workstation, lysates were applied to an Oasis HLB 96-well elution plate (30 mg of sorbent per well) pre-conditioned and equilibrated with 1 mL of methanol and 1 mL of water, respectively. After de-salting with 1 mL of water, analytes were eluted into a deep-well 96-well plate using 1 mL of 25 mM ammonium acetate in methanol. Eluent was evaporated dried under nitrogen gas. The dried LC-HRMS samples were resuspended in 50 µL of 5% (w/v) sulfosalicylic acid in water. […] A modified gradient using solvent A (5 mM ammonium acetate in water), solvent B (5 mM ammonium acetate in 95:5 (v:v) acetonitrile: water) and solvent C (0.1% (v/v) formic acid in 80:20 (v:v) acetonitrile: water). Data was acquired using XCalibur 4.0 (Thermo Scientific) and analyzed using Tracefinder 5.1 (Thermo Scientific).

The next data set deals with FASN. As to the kind of experiment: Immunoblot of FASN protein levels. The settings on record: MDA-MB-231BR cells, 24 h. Format: cell-based. The protocol:
Immunoblotting protocols have been previously described. Briefly, cell lysates from one to five x 10^6 cells were prepared in radioimmune precipitation assay buffer (150 mM NaCl, 1% NP40, 0.5% DOC, 50 mM Tris HCL at pH 8, 0.1% SDS, 10% glycerol, 5 mM EDTA, 20 mM NaF, and 1 mM Na3VO4) supplemented with 1 μg/mL each of pepstatin, leupeptin, aprotinin, and 200 μg/mL PMSF. Lysates were cleared by centrifugation at 16,000 x g for 15 min at 4°C and analyzed by SDS-PAGE and autoradiography with chemiluminescence. Proteins were analyzed by immunoblotting using primary antibodies indicated above.
Background: A western blot detects proteins with antibodies after separation by electrophoresis.

In data set [2] the test system is 4T1BR tumor bearing brain slices. In words: Ex vivo tumor-brain slice model. Set-up: species or system nu/nu mice. The settings on record: 4T1BR brain slices, 100 μM, 6 days, bioluminescence. Here is the method:
Ex vivo brain slice tumor model was performed as previously described ([Ciraku et al., 2021]). Briefly, Nu/Nu athymic 4–6 week old mice Charles River Laboratories (Wilmington, MA, United States) were immobilized using the Just for Mice Stereotaxic Frame (Harvard Apparatus, Holliston, MA, United States) and injected intracranially with 5uL of 20,000 cells/uL solution of luciferase tagged MDA-MB-231BR or 4T1BR cells. Tumor growth was monitored via bioluminescence imaging on the IVIS system (Perkin Elmer, Waltman, MA, United States). Organotypic hippocampal cultures were prepared as described previously ([Ciraku et al., 2021]). Briefly, adult mice (4–6 weeks) or mice after 12 days following intracranial injection were decapitated and their brains rapidly removed into ice-cold (4°C) sucrose-aCSF composed of the following (in mM): 280 sucrose, 5 KCl, 2 MgCl2, 1 CaCl2, 20 glucose, 10 HEPES, 5 Na^+-ascorbate, 3 thiourea, 2 Na^+-pyruvate; pH = 7.3. […] Tumor growth was monitored via bioluminescence imaging on the IVIS 200 system (Perkin Elmer), and results were analyzed using Living Image software (Caliper Life Sciences, Waltham, MA, United StatesUnited States). […] Tissues were incubated at 37 ℃ , 5% CO2 for 4 h, and absorbance at 490 nm was measured with a Tecan Spark Microplate reader.

For another data set, the system named is 4T1BR cells. In words: Intracranial 4T1BR tumor model in vivo. Further details: species or system BalbC mice. The protocol:
(§1) Intracranial injections were performed as previously described ([Ciraku et al., 2021]). Briefly, Nu/Nu or BalbC female 4–6 week old mice from Charles River Laboratories (Wilmington, MA, United States) were immobilized using the Just for Mice ™ Stereotaxic Frame (Harvard Apparatus, Holliston, MA, United States) and injected intracranially with 5 μL of a 20,000 cells/μL solution of MDA-MB-231BR or 4T1BR cells stably expressing luciferase. Mice were injected intraperitoneally with 30 mg/kg of Dluciferin solution (Caliper Life Sciences, Hopkinton, MA) and results analyzed using Living Image software (Caliper Life Sciences, Waltham, MA, United States). For in vivo analog trials, mice were weighed daily and injected intraperitoneally with 50 mg/kg of AD-8007. Mice were euthanized 3 weeks after injection following survivial or at the end of drug treatment at indiciated day. The animal study was reviewed and approved by the Institutional Animal Care and Use Committee.
(§2) Brains were dissected, fixed in 4% formalin and prepared for processing/sectioning/embedding/blocking to generate paraffin embedded slides. The slides containing brain metastatic tumors were deparaffinized by Xylene and subsequent rehydration was done by decreasing concentrations of ethanol-water mixture. Antigen retrieval was done by citrate buffer immersion and steaming the slides for 45 min. Tissue was treated with 200–400 ul 1% BSA+5% serum PBS solution for 1h. Primary incubation was done at 4 °C overnight using primary antibody anti-FasN (Cell Signaling Technologies, C20G5). Secondary antibody incubation was done for an hour at RT with HRP conjugated Anti-Rabbit Secondary antibody (Cell Signaling Technologies). at 1:100 dilution. For IHC the stain was developed using the DAB kit by Vectastain (Vector Labs, Burlingame, CA, United States). Finally, slides were mounted and imaged under a light microscope. H&E and Ki-67 staining were performed and assessed at TJU, Department of Pathology, Philadelphia, PA by board-certified pathologist.

Data set [3] has as its system MDA-MB-231BR cells. As to the kind of experiment: Intracranial MDA-MB-231BR tumor model in vivo. Set-up: species or system Nu/Nu mice. Here is the method:
as §1, §2

For the compound `N[C@H](C(=O)N1CCCC(c2ccccc2)(c2ccccc2)C1)C1CC1` [AD-8007], the acetyl-CoA levels result in the data set on MDA-MB-231BR cells [1] is reported as “significantly reduced acetyl-CoA levels”. Besides, the “protein levels of FASN” value in the data set with FASN is listed as “reduced protein levels of FASN”. The “tumor growth of preformed tumors ex vivo” value in data set [2] is given as “significantly reduced tumor growth of preformed tumors”. Also, in the data set on 4T1BR cells (4T1BR intracranial, 10 days post treatment), the Ki-67 staining result is “reduced Ki-67 staining”. The survival entry in the data set on 4T1BR cells (4T1BR intracranial, Kaplan Meyer) is given as “significantly extended survival”; in the data set on MDA-MB-231BR cells [3] (MDA-MB-231BR intracranial, drug withdrawn after treatment, Kaplan Meyer), “significantly extended surivial”. Further, the “tumor burden (bioluminescence)” value is “reduced tumor burden” with 4T1BR cells (4T1BR intracranial, immunecompetent mice, 10 days) and “significantly reduced tumor burden” in the data set on MDA-MB-231BR cells [3] (MDA-MB-231BR intracranial, 50 mg/kg daily, 14 days). For the same compound, the body weight result in the data set on 4T1BR cells (immunecompetent mice, 10 days) was “did not cause significant weight lost”; in the data set with MDA-MB-231BR cells [3] (immunodeficient mice, 50 mg/kg daily, 14 days), “did not cause significant weight lost”. For the same compound, the “tumor burden and proliferation via H&E and Ki67 staining” value with MDA-MB-231BR cells [3] (MDA-MB-231BR intracranial, 14 days post treatment) was “reduction in tumor burden and proliferation”. Moreover, the “FASN staining in tumors” value with MDA-MB-231BR cells [3] (MDA-MB-231BR tumors, 14 days treatment, IHC) is “reduced expression of FASN staining”.
